# Measurements as given in patent US7897630B2, “5-aryl isoxazolines for controlling invertebrate pests” (E.I. du Pont de Nemours and Company, priority 2005, dated 2011).
# System: cat flea (Ctenocephalides felis Bouche)
# Test: Test H: control of cat flea on orally dosed CD-1 mouse
# Format: in vivo
# Conditions: oral 10 mg/kg, fleas applied 2 hours after dosing, evaluated 48 hours after flea application
# Procedure: For evaluating control of the cat flea (Ctenocephalides felis Bouche), a CD-1® mouse (about 30 g, male, obtained from Charles River Laboratories, Wilmington, Mass.) was orally dosed with a test compound in an amount of 10 mg/kg solubilized in propylene glycol/glycerol formal (60:40). Two hours after oral administration of the test compound, approximately 8 to 16 adult fleas were applied to each mouse. The fleas were then evaluated for mortality 48 hours after flea application to the mouse.
smiles,measurement,value
CSc1ccc(C2=NOC(c3cc(Cl)cc(Cl)c3)(C(F)(F)F)C2)cc1Br (racemic) [Compound 205],flea mortality,≥ 20%
